Test results reported in PMC4383039 (Science translational medicine, 2015).
Converted amounts (≈) assume the structure as drawn. “And” between values parts separate entries of the source, which are not always exact repeats. Identical values can stand only once.

How the values were obtained:
Format in all cases: cell-based, Mycobacterium tuberculosis
[1] = tested on: 4-hydroxy-2-pyridone resistance mutants of Mtb
[2] = tested on: H37Rv∷pMV262-InhA strains; assay: microbe, parasite or virus in culture; conditions: for MIC50: Mycobacterium tuberculosis, H37RV, read-out: Compound MIC50
Mtb H37Rv = tested on: Mtb H37Rv

| SMILES | Compound MIC50 [1] | Compound MIC50 [2] | MIC50 [2] | fold more resistant than the parental H37Rv strain [1] | Mutation frequency (Mtb H37Rv) | frequency of resistance (Mtb H37Rv) | resistance, MIC50 fold [1] | MIC50 fold shift with the Mtb H37Rv strain [2] |
| --- | --- | --- | --- | --- | --- | --- | --- | --- |
| [H]/N=C(/N)N[C@H]1[C@H](O)[C@@H](O)[C@H](O[C@@H]2O[C@@H](C)[C@](O)(C=O)[C@H]2O[C@@H]2O[C@@H](CO)[C@H](O)[C@@H](O)[C@@H]2NC)[C@@H](N/C(N)=N\[H])[C@@H]1O [streptomycin] | 0.1 µM and 0.09 µM and 0.08 µM and 0.06 µM | 0.084 µM and 0.079 µM and 0.075 µM | 0.074 µM (≈ 0.043 µg/mL) | – | – | – | – | – |
| CC(C)Cc1cc(O)c(-c2ccccc2)c(=O)[nH]1 [NITD-529, 4-hydroxy-6-isobutyl-3-phenylpyridin-2(1H)-one] | > 40 µM | – | 2.59 µM (≈ 0.63 µg/mL) | at least 25 fold | 1.2×10^-8 | 1 × 10^−8 | – | – |
| NNC(=O)c1ccncc1 [isoniazid] | – | – | 0.51 µM (≈ 0.0699 µg/mL) | – | ∼ 1× 10^-6 | – | > 3 fold | 0.51 (2.04×) |
| CCc1cc(C(N)=S)ccn1 [ethionamide] | – | – | – | – | – | – | > 3 fold | – |
